Laboratory results as given in patent publication US10422787B2, “System and method for single molecule detection” (ARIZONA BOARD OF REGENTS on behalf of ARIZONA STATE …, priority 2015, dated 2019).

Legend:
cyclic RGD peptide [1] = experiment: Tunnel junction device functionalized with cyclic RGD peptide, gap 3.5 to 4 nm, current vs time; assay type: binding; conditions: for signal on flowing solution over junction: X=0.1 μm junction, 10 pM α4β1 for several minutes, then 10 fM αVβ3
Text: FIG. 7 illustrates a cross-sectional view of a tunnel junction edge (i.e., the edge of an opening) of the device according to some embodiments of the present disclosure which includes a first metal electrode 71 (e.g., palladium, gold and/or platinum) onto which is deposited a layer of an insulating dielectric such as alumina 72 (for example). A second metal electrode 73 is then deposited, typically using one of the metals used for the first electrode. In some embodiments (not shown), the first electrode 71 and the second electrode 73 A cut is then made in the structure to expose the edge of these layers (fabrication of this type of device is described in detail in co-pending, published WO2015/161119, and also in Pang, Ashcroft et al. 2014) to form the opening/nanopore 78, shown here as a plane adjacent to the electrodes 71, 73. Accordingly, the first electrode 71 and the second electrode 73 can have an opening formed therethrough such as, for example, a nanopore. Said another way, the first electrode 71 and the second electrode 73 can be said to be arranged within or adjacent to an opening, or have a nanopore formed therethrough.
Specifically, for example, the insulating layer 72 is deposited with a thickness d that is chosen to be greater than the longest linear dimension of the recognition molecules 74 (L1, referred to as its effective length). However, according to some embodiments, it is chosen to be less than the combined overall length of the largest dimension of a target molecule 75 (L2, also referred to as its effective length) bound to the recognition molecule 74 (L1+L2). In the case of the integrin-RGD pair (FIGS. 3 and 4) the RGD molecule is about 1 nm at its longest, while the integrin is 9 nm, for a total of about 10 nm. […] However, a large particle that fluctuates into a highly conductive state could be used to mediate current flow (Vattay, Salahub et al. 2015). In some embodiments, the gap need only be made substantially larger than twice the largest dimension of the recognition molecules (i.e., >2L1). Thus, for example, if a recognition molecule is 1 nm at its longest dimension, then the gap is configured to be greater than 2 nm, preferably by about 10%, to accommodate variations in the junction geometry (larger than 2.2 nm in this example). In some embodiments, a gap size can be from the noted minimum up to the size of one recognition molecule plus the size of the target protein. For example, if the largest dimension of the protein is 9 nm, then the gap in this case can be as big 9 nm plus the size of one of the recognition molecules (1 nm in this example), thus, a gap of 10 nm.
However, when the junctions are exposed to the target protein (αvβ3 integrin) signals appear immediately. […] A clear signal is immediately generated which includes two (2) features as marked: a background current (of about 0.5 nA in this case) and noise spikes of 0.5 to 1 nA superimposed on top.

cyclic RGD peptide [2] = experiment: Fixed-gap (5 nm) MEMED tunnel chip functionalized with cyclic RGD peptide; assay type: binding; design: signal in fixed-gap device: dose or concentration left out as unconfirmed
Protocol: A fixed gap tunneling device has significant advantages over STM measurements. […] It is fabricated much as described in our earlier paper. The basic fabrication of the layered device (10 nm Pd, 4 to 5 nm Al2O3 followed by 10 nm Pd, resting on top of a 25 nm SiN substrate and passivated on top with SiO2) was carried out by Norcada Inc. (Edmonton, Alberta). Our original devices had large (micron-scale) openings, but it was desired to restrict the region over which proteins could be captured to dimensions small enough that the capture of multiple molecules in the tunnel junction was unlikely (illustrated schematically by the capture of a single integrin in FIG. 16A). RIE was used to thin the underlying SiN substrate to ˜15 nm, followed by e-beam lithography using a hard mask and further RIE etching (FIG. 16C and Methods). In this way, slits were produced that were 50 to 100 nm across and up to 400 nm long, though the active area was defined by the top electrode widths of about 100 nm (FIG. 16C). After cleaning and functionalization (Methods) the device was immersed in 1 mM phosphate buffer (pH=7.4) with the electrode potentials controlled with respect to an Ag/AgCl electrode coupled via a salt bridge (SB in FIG. 16A).
Our devices often suffer from failure of the passivation layer (SiO2 in FIG. 16B) so that, even in the dilute electrolyte, leakage currents can be substantial (e.g., a few nA, FIG. 16D). […] Thus, these are currents that pass from exposed regions of the top electrodes via the electrolyte, and they are not a consequence of tunneling or electrochemical leakage across the tunnel gap itself. These leakage currents (FIG. 16D) show no distinctive features beyond the shot- and system electronic noise (distributed as a Gaussian, FIG. 16E). When […] α1β4 protein was added (FIG. 16F) the background current falls a little, presumably because of passivation of the exposed electrodes by non-specific adsorption of this protein. Once again, the signal is featureless, displaying the same intrinsic noise as observed in buffer alone (FIG. 16G). (In contrast to the STM measurements, no features have been observed in the fixed-gap devices in any measurement taken in the presence of α1β4.) However, once αVβ3 protein is added to the same device, dramatic jumps occur in the current (FIG. 16H). The background leakage current is reduced by about 20% on addition of the protein, consistent with the passivation effect seen in the macroscopic electrochemical measurements (FIGS. 14B, 14C). The signal jumps up from the baseline to two well defined levels (FIG. 16I) in this case. The states are separated by nearly 0.5 nA, corresponding to ˜1.5 nS conductance (Vt=0.3V). […]

Substance	background current (cyclic RGD peptide [1]; 1 pM in 1 mM phosphate buffer pH 7.0)	signal on flowing solution over junction (cyclic RGD peptide [1])	change of background current (cyclic RGD peptide [1]; on increasing concentration to 10 pM)	signal in undiluted Serasub (protein-free serum substitute) (cyclic RGD peptide [2]; 0.1 nM, tunneling bias 200 mV)	conductance of current jump (cyclic RGD peptide [2]; Vt=0.3V, 5 nm gap)	separation of current states (current jumps) (cyclic RGD peptide [2]; Vt=0.3V, 5 nm gap)	background current (cyclic RGD peptide [1]; 10 pM and 100 pM solutions)	signal in fixed-gap device (cyclic RGD peptide [2]; protein added)
αvβ3: ~200 kD αVβ3 extracelluar domain of human integrin, target protein bound by cyclic RGD peptide	about 0.5 nA	a large signal appeared after a few minutes	increases by nearly an order of magnitude	2LS signals were observed	~1.5 nS	~0.5 nA		
α4β1: homologous, weakly-binding integrin protein used as a control		no signal being produced					no background current	featureless
